Like-named read-outs stand apart in the source and are kept apart here.
Legend:
CB1 receptor [1] = biological target: CB1 receptor (UniProt P21554); experiment: CB1 receptor affinity assay; assay type: binding; conditions: for Kd: read-out: CB1KD
Protocol: (§1) Mouse Tetrad and CB1 and CB2 receptor Affinity. The mouse tetrad and CB1 and CB2 receptor affinity assays were carried out as previously described in Wiley, J. L., Beletskaya, I. D., Ng, E. W., Dai, Z., Crocker, P. J., Mahadevan, A, Razdan, R. K., Martin, B. R., Resorcinols derivatives: a novel template for the delevopment of cannabinoid CB1/CB2 and CB2-selective agonists. J. Pharmacol. Exp. Ther. 301: 679-689, 2002.
(§2) The incorporation of sulfonaminde moieties is known to impart antagonistic activity in some classes of compounds. There is precedent for sulfonamide derivatives to show potent antagonist activity in peptidoleukotrienes (see for example, Matassa et al., J. Med. Chem. 1990, 33, 2621-2629; Jacobs et al., J. Med. Chem. 1993, 36, 394-409). In the development of the present invention, a sulfonamide moiety, SO2R, in which the identity of R was varied, was incorporated into the terminal position of a tetrahydrocannabinol (THC) side chain, which was also varied (saturated or unsaturated) as described above. The resulting compounds were tested for CB1 and CB2 receptor binding affinity, and cannabinoid agonist and antagonist properties using the mouse tetrad test, as described in Materials and Methods.

CB2 receptor = CB2 receptor (Homo sapiens, UniProt P34972); experiment: CB2 receptor affinity assay; assay type: binding
Protocol: as §1, §2

mice = experiment: Mouse tetrad test (sedation, analgesia, hypothermia) following i.v. administration; assay type: in vivo; conditions: for ED50: iv
Protocol: as §1, §2
The compounds were tested for their CB1 and CB2 receptor binding ability, and their cannabinoid agonist and antagonist properties.

CB1 receptor [2] = biological target: T1, CB1 receptor (Mus musculus, UniProt P47746); experiment: Antagonism of WIN 55,212-2 inhibition of electrically induced contractions of mouse vas deferens; assay type: cell-based
T1 construct: O-2050 behaves as a CB1 receptor antagonist at naturally expressed CB1 receptors; from tissue; host or cells: mouse vas deferens
Protocol: FIG. 3. Compound O-2050 antagonism of WIN 55,212-2 in mouse vas deferens. X axis, concentration of WIN 55,212-2; Y axis, % inhibition of WIN 55,212-2 activity (mean % inhibition±standard error [s.e.] of the mean). Open circles=vehicle control (WIN 55212-2 added after pretreatment with dimethylsulfoxide (DMSO), the solvent in which the O-2050 was dissolved; open triangles: 1 nM O-2050 (WIN 55,212-2 added after pretreatment with 1 nM O-2050); filled circles: 10 nM O-2050 (WIN 55,212-2 added after pretreatment with 10 nM O-2050); filled triangles: 31.62 nM O-2050 (WIN 55,212-2 added after pretreatment with 31.62 nM O-2050); filled squares: 100 nM O-2050 (WIN 55,212-2 added after pretreatment with 100 nM O-2050.
These observations were extended by examining O-2050 in the mouse vas deferens, a smooth muscle preparation that is regulated by the cannabinoid system.

mouse vas deferens [3] = experiment: Mouse vas deferens, compound alone (inverse agonism); assay type: cell-based; conditions: up to 1000 nM
From the text: FIG. 4. Compound O-2050 lacks inverse agonism in GTPγS binding in mouse vas deferens. Y axis, % enhancement±s.e. (standard error of the mean) of GTPγS binding in mouse vas deferens by O-2050 at the indicated concentrations.
In order to determine whether O-2050 has inverse agonist properties in the mouse vas deferens, the compound was examined alone in this tissue preparation. […] O-2050 therefore differs from the putative inverse agonist, SR141716A, which does enhance the amplitude of these contractions in this bioassay system (e.g. see Pertwee et al., 1996, Eur. J. Pharmacol. 315: 195-201). […] Therefore, O-2050 lacks inverse agonist properties in yet another system that is regulated by the cannabinoids.

CB1 receptor [4] = biological target: T2, CB1 receptor (Rattus norvegicus, UniProt P20272); experiment: Block of CP 55,940-stimulated GTPγS binding in rat brain tissue; assay type: biochemical; set-up: from tissue; host or cells: rat brain tissue
Protocol: FIG. 1. Compound O-2050 blocks CP 55,940 stimulation of GTPγS binding. O-2050 was tested for its ability to block stimulation of GTPγS binding by CP 55,940. […], log concentration of O-2050; Y axis, % stimulation by CP 55,940.
The above properties of O-2050 are indicative of an antagonist. Therefore, the ability of O-2050 to block the agonist effects of CP 55,940, a highly efficacious cannabinoid, in the in vitro GTPγS binding assay in rat brain tissue was tested. The assay is an in vitro functional measure of CB1 receptor activation.

CB1 receptor [5] = biological target: T2, CB1 receptor; experiment: GTPγS binding in rat brain membranes, compound alone (inverse agonism); assay type: biochemical; set-up: from tissue; host or cells: rat brain membranes; conditions: for GTPγS stimulation (1 μM): rat brain membranes
From the text: FIG. 2. Compound O-2050 lacks inverse agonism in GTPγS binding in rat brain membranes. X axis, concentration of O-2050 (M); Y axis, % stimulation of GTPγS binding.
In order to determine whether O-2050 had inverse agonist properties, the compound was examined alone in the GTPγS binding assay. […] The performance of O-2050 in this assay in comparison to two other compounds with unsaturated side chains and varying R groups (O-1991, R=ethyl, and O-1993, R=butyl) are given in Table 3.

mouse vas deferens [6] = conditions: literature, Pertwee et al. 1996; cited from earlier work
[7] = mouse tetrad, i.v. administration, read-out: Analgesia ED50
[8] = mouse tetrad, i.v. administration, read-out: Sedation ED50
[9] = mouse tetrad, i.v. administration, read-out: Temperature (hypothermia) ED50
[10] = mouse tetrad, i.v. administration

T1 sequence (P47746 whole entry): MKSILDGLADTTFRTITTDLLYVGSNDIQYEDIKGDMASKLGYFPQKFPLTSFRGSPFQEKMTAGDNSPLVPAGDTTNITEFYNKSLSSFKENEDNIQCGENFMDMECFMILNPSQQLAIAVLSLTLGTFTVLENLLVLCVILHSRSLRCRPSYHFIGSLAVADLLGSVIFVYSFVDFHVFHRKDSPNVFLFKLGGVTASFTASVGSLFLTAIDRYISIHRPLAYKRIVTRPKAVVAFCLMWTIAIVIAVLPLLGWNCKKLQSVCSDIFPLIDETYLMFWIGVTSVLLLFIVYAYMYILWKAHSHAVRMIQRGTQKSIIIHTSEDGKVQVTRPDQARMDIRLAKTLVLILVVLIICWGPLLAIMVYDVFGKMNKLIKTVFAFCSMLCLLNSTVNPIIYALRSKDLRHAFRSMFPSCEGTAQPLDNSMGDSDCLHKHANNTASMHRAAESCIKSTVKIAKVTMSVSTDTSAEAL
T2 sequence (P20272 whole entry): as the sequence (P47746 whole entry) above, with D95E counted along it
CB2 receptor, sequence (P34972 whole entry): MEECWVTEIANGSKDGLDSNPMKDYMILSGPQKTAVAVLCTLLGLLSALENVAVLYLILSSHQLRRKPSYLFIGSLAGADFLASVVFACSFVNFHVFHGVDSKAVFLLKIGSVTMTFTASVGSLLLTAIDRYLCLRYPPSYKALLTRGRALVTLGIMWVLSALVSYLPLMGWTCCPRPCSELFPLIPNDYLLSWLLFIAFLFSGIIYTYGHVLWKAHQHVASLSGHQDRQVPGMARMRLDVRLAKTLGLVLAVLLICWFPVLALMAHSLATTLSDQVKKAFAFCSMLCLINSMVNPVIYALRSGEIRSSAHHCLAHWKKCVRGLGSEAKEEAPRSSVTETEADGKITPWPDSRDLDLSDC

SMILES | CB1 receptor affinity (in words) (CB1 receptor [1]) | Kd (CB1 receptor [1]) | CB2 receptor affinity (in words) (CB2 receptor) | Kd (CB2 receptor) | ED50 (mice; [7]) | ED50 (mice; [8]) | ED50 (mice; [9]) | Negative stimulation of GTPγS binding / agonist character (in words) (CB1 receptor [5]) | GTPγS stimulation (1 μM) (CB1 receptor [5]) | Agonist potency in mouse tetrad test (in words) (mice; i.v. administration) | further results
CC1=CCC2C(C1)c1c(O)cc(CC#CCCCNS(C)(=O)=O)cc1OC2(C)C (stereo not shown) [Compound O-2050, 3-Norpentyl-3-(6-methanesulfamidohex-2-yne-yl)-Δ^8-tetrahydrocannabinol] | high affinity | 2.5 ± 0.4 nM | high affinity | 0.2 ± 0.06 nM | > 30 mg/kg | 4.3 mg/kg | > 30 mg/kg | failed to produce negative stimulation | 11% | – | Sedation (in words) (mice; mouse tetrad): only weakly active; Analgesia ED50 (mice; [10]): >30 mg/kg; Temperature (hypothermia) ED50 (mice; [10]): >30 mg/kg; Kb (CB1 receptor [2]): 1 nM; Dextral Shift of WIN 55,212-2 log concentration-response curve (CB1 receptor [2]; 1 nM O-2050): 2.8; Dextral Shift of WIN 55,212-2 log concentration-response curve (CB1 receptor [2]; 10 nM O-2050): 7.5; Dextral Shift of WIN 55,212-2 log concentration-response curve (CB1 receptor [2]; 20 nM O-2050): 15; Dextral Shift of WIN 55,212-2 log concentration-response curve (CB1 receptor [2]; 100 nM O-2050): 104; Enhancement of amplitude of electrically-evoked contractions (mouse vas deferens [3]): did not enhance; Kb (CB1 receptor [4]): 1 nM
CCCCS(=O)(=O)NCCCC#CCc1cc(O)c2c(c1)OC(C)(C)C1CC=C(C)CC21 (stereo not shown) [Compound O-1993] | moderate affinity | 70 ± 10 nM | only moderate affinity | 86 ± 7 nM | 14 mg/kg | 7.6 mg/kg | 12 mg/kg | weak agonists | 30% | moderate to low pharmacological agonist potency | –
Cc1c(C(=O)NN2CCCCC2)nn(-c2ccc(Cl)cc2Cl)c1-c1ccc(Cl)cc1 [SR141716A] | – | – | – | – | – | – | – | – | – | – | Enhancement of amplitude of electrically-evoked contractions (mouse vas deferens [6]): does enhance
CC1=CCC2C(C1)c1c(O)cc(C(C)(C)CCCCNS(=O)(=O)c3ccccc3)cc1OC2(C)C (stereo not shown) [Compound O-2048, 1,1-Dimethyl-5-phenylsulfamido-Δ^8-tetrahydrocannabinol] | high affinity | 4.1 ± 0.4 nM | high affinity | – | 2.8 mg/kg | 0.3 mg/kg | 5.6 mg/kg | – | – | potent cannabinoid agonists | –
CCCCCc1cc(O)c2c(c1)OC(C)(C)[C@@H]1CCC(C)=C[C@@H]21 [THC, reference compound] | – | – | – | – | – | – | – | – | 15% | – | –
CCS(=O)(=O)NCCCCC(C)(C)c1cc(O)c2c(c1)OC(C)(C)C1CC=C(C)CC21 (stereo not shown) [Compound O-2113, 1,1-Dimethyl-5-ethanesulfamido-Δ^8-tetrahydrocannabinol] | high affinity | 1.7 ± 0.3 nM | high affinity | – | 0.3 mg/kg | 0.4 mg/kg | 1.4 mg/kg | – | – | potent cannabinoid agonists | –
CCS(=O)(=O)NCCCC#CCc1cc(O)c2c(c1)OC(C)(C)C1CC=C(C)CC21 (stereo not shown) [Compound O-1991, 3-Norpentyl 3-(6-ethanesulfamidohex-2-yne-yl)-Δ^8-tetrahydrocannabinol] | moderate affinity | 20 ± 13 nM | high affinity | 1.4 ± 0.2 nM | 0.9 mg/kg | 1.7 mg/kg | 0.8 mg/kg | weak agonists | 29% | moderate to low pharmacological agonist potency | –

— patent US7279500B2, “Sulfonamide cannabinoid agonists and antagonists” (Virginia Commonwealth University, priority 2002, dated 2007)
